Measured values as given in US20260250289A1, “BICYCLIC HETEROCYCLES AND THEIR USE AS WRN INHIBITORS” (Novartis AG, priority 2022, published 2026).
Read-outs that look alike come from different tables or passages of the source.

Tests used:
[1] = biological target: T1, WRN helicase (aa N517-P1238) (Homo sapiens, UniProt Q14191); experiment: WRN ATPase assay (DNA dependent ATP hydrolysis, ADP-Glo); format: biochemical; conditions: 3 hours pre-incubation, 300 micromolar ATP, FLAP26 DNA; geometric mean of at least 2
T1 construct: The core helicase motif of the WRN protein (aa N517-P1238) was produced for this assay; His (N); ZZ (N); 3C protease cleavage site (N); made in house; host or cells: Sf21 insect cells (baculovirus; virus and BIICs made in SF9)
T1 sequence (Q14191 517-1238): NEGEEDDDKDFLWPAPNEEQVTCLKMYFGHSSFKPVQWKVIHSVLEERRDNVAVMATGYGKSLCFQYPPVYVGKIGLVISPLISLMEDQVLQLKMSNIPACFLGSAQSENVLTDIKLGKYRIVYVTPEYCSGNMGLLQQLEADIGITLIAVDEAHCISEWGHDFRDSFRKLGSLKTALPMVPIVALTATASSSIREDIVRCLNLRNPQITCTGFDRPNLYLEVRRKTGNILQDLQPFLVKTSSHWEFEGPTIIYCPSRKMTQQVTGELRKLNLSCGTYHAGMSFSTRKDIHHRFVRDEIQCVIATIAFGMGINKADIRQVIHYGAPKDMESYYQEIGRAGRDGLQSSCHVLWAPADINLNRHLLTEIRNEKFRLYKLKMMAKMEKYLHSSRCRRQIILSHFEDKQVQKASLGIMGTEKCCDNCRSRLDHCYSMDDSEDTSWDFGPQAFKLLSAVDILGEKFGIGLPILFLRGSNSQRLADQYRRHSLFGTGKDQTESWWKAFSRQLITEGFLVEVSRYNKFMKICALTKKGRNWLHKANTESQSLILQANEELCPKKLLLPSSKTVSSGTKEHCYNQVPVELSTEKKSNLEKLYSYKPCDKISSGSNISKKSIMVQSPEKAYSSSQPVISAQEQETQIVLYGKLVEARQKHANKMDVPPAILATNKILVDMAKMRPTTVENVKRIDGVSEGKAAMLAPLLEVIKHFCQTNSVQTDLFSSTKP
Summary of the method: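 DNA-dependent ATP hydrolysis detected as ADP by ADP-Glo luminescence, using 300 μM ATP, 0.2 nM FLAP26 substrate and 10 nM WRN aa N517-P1238 (Tris pH 7.5 buffer, 2 mM MgCl2, 50 mM NaCl). IC50s fitted from normalized duplicate half-log dilutions; reported as geometric means of at least 2 replicates.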

[2] = tested on: DLD1-WRN-KO cells; experiment: Proliferation assay DLD1-WRN-KO (CellTiterGlo, off-target effects); format: cell-based; conditions: 96 hours, geometric mean of at least 2
Summary of the method: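 DLD1 cells with CRISPR knockout of WRN were exposed overnight-seeded to eight 3-fold compound dilutions (0.1% DMSO) for 96 h at 37 °C. Viability was read as ATP by CellTiterGlo luminescence against a day-0 plate, giving GI50 and residual viability at top concentration.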

[3] = tested on: SW48 cells; experiment: Proliferation assay SW48 (CellTiterGlo); format: cell-based; conditions: SW48 colon carcinoma cells, 96 hours, CellTiterGlo, geometric mean of at least 2, read-out: Proliferation Assay SW48 GI50
Summary of the method: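 Read-out is CellTiterGlo luminescence after 96 hours of compound exposure, with % growth calculated against day-0 and vehicle-treated ATP levels. SW48 seeded at 2,000 cells/well, dosed next day with eight 3-fold serial dilutions, 0.1% DMSO. GI50 reported as geometric mean, at least 2 replicates.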

Row | IC50 [1] [nM] | GI50 [2] [nM] | GI50 [3] [nM] | GI50 ([3]; Homo sapiens, SW48, 96 h) [nM] | Compound
1 | 400 | > 10000 | 4000 |  | CCc1c(N2CCN(C(=O)C3CCOC3)CC2)c(=O)n2nc(C3=CCCCO3)nc2n1CC(=O)Nc1ccc(C(F)(F)F)cc1 (stereo not drawn) [Example 61, 2-(2-(3,4-dihydro-2H-pyran-6-yl)-5-ethyl-7-oxo-6-(4-(tetrahydrofuran-3-carbonyl)piperazin-1-yl)-[1,2,4]triazolo[1,5-a]pyrimidin-4(7H)-yl)-N-(4-(trifluoromethyl)phenyl)acetamide]
2 | 500 | > 10000 |  | 1000 | CC(=O)N1CCN(c2c(C)n(CC(=O)Nc3ccc(S(F)(F)(F)(F)F)cc3C)c3nc(C4=CCOCC4)nn3c2=O)CC1 [Example 62, 2-(6-(4-acetylpiperazin-1-yl)-2-(3,6-dihydro-2H-pyran-4-yl)-5-methyl-7-oxo-[1,2,4]triazolo[1,5-a]pyrimidin-4(7H)-yl)-N-(2-methyl-4-(pentafluoro-l6-sulfaneyl)phenyl)acetamide]
3 | 500 | > 10000 |  | 4000 | CC(=O)N1CCN(c2c(C)n(CC(=O)Nc3ccc(C(F)(F)F)cc3)c3nc(C4=CCOCC4)nn3c2=O)C[C@H]1C [Example 63, (R)-2-(6-(4-acetyl-3-methylpiperazin-1-yl)-2-(3,6-dihydro-2H-pyran-4-yl)-5-methyl-7-oxo-[1,2,4]triazolo[1,5-a]pyrimidin-4(7H)-yl)-N-(4-(trifluoromethyl)phenyl)acetamide]
4 | 900 | > 10000 |  | 4000 | CC(=O)N1CCN(c2c(C)n(CC(=O)Nc3ccc(C(F)(F)F)cc3C)c3nc(C4=CCOCC4)nn3c2=O)CC1 [Example 64, 2-(6-(4-acetylpiperazin-1-yl)-2-(3,6-dihydro-2H-pyran-4-yl)-5-methyl-7-oxo-[1,2,4]triazolo[1,5-a]pyrimidin-4(7H)-yl)-N-(2-methyl-4-(trifluoromethyl)phenyl)acetamide]
5 | 8000 | 4000 |  | 4000 | Cc1c(N2CCN(C(=O)OCc3ccccc3)CC2)c(=O)n2nc(C3=CCOCC3)nc2n1CC(=O)Nc1ccc(C(F)(F)F)cc1 [Example 65, benzyl 4-(2-(3,6-dihydro-2H-pyran-4-yl)-5-methyl-7-oxo-4-(2-oxo-2-((4-(trifluoromethyl)phenyl)amino)ethyl)-4,7-dihydro-[1,2,4]triazolo[1,5-a]pyrimidin-6-yl)piperazine-1-carboxylate]
6 | 30 | > 10000 |  | 300 | CCc1c(N2CCN(C(=O)c3nsnc3O)CC2)c(=O)n2nc(C3=CCOCC3)nc2n1CC(=O)Nc1ccc(C(F)(F)F)cc1Cl [Example 66, N-(2-chloro-4-(trifluoromethyl)phenyl)-2-(2-(3,6-dihydro-2H-pyran-4-yl)-5-ethyl-6-(4-(4-hydroxy-1,2,5-thiadiazole-3-carbonyl)piperazin-1-yl)-7-oxo-[1,2,4]triazolo[1,5-a]pyrimidin-4(7H)-yl)acetamide]
7 | 300 | > 10000 |  | 3000 | CCc1c(N2CCN(C(=O)c3ncn(C)c3O)CC2)c(=O)n2nc(C3=CCOCC3)nc2n1CC(=O)Nc1ccc(C(F)(F)F)cc1Cl [Example 67, N-(2-chloro-4-(trifluoromethyl)phenyl)-2-(2-(3,6-dihydro-2H-pyran-4-yl)-5-ethyl-6-(4-(5-hydroxy-1-methyl-1H-imidazole-4-carbonyl)piperazin-1-yl)-7-oxo-[1,2,4]triazolo[1,5-a]pyrimidin-4(7H)-yl)acetamide]
8 | 20 | > 10000 |  | 100 | CCc1c(N2CCN(C(=O)c3c(F)ccc(F)c3O)CC2)c(=O)n2nc(C3=CCOCC3)nc2n1CC(=O)Nc1ccc(C(F)(F)F)cc1C [Example 68, 2-(6-(4-(3,6-difluoro-2-hydroxybenzoyl)piperazin-1-yl)-2-(3,6-dihydro-2H-pyran-4-yl)-5-ethyl-7-oxo-[1,2,4]triazolo[1,5-a]pyrimidin-4(7H)-yl)-N-(2-methyl-4-(trifluoromethyl)phenyl)acetamide]
9 | 500 | > 10000 |  | 4000 | CC(=O)N1CCN(c2c(C)n(CC(=O)Nc3ccc(C(F)(F)F)cc3)c3nc(C4=CCOCC4)nn3c2=O)CC1 [Example 69, 2-(6-(4-acetylpiperazin-1-yl)-2-(3,6-dihydro-2H-pyran-4-yl)-5-methyl-7-oxo-[1,2,4]triazolo[1,5-a]pyrimidin-4(7H)-yl)-N-(4-(trifluoromethyl)phenyl)acetamide]
10 | 70 | > 10000 |  | 900 | CC(=O)N(C)Cc1ccc(-c2nc3n(CC(=O)Nc4ccc(C(F)(F)F)cc4)c(C)c(N4CCN(C(C)=O)CC4)c(=O)n3n2)cc1 [Example 70, 2-(6-(4-acetylpiperazin-1-yl)-5-methyl-2-(4-((N-methylacetamido)methyl)phenyl)-7-oxo-[1,2,4]triazolo[1,5-a]pyrimidin-4(7H)-yl)-N-(4-(trifluoromethyl)phenyl)acetamide]
11 | 90 | > 10000 |  | 5000 | CC(=O)N1CC=C(c2nc3n(CC(=O)Nc4ccc(S(F)(F)(F)(F)F)cc4)c(C)c(N4CCN(C(C)=O)CC4)c(=O)n3n2)CC1 [Example 71, 2-(2-(1-acetyl-1,2,3,6-tetrahydropyridin-4-yl)-6-(4-acetylpiperazin-1-yl)-5-methyl-7-oxo-[1,2,4]triazolo[1,5-a]pyrimidin-4(7H)-yl)-N-(4-(pentafluoro-l6-sulfaneyl)phenyl)acetamide]
12 | 100 | > 10000 |  | 2000 | CCc1ccc(NC(=O)Cn2c(C)c(N3CCN(C(C)=O)CC3)c(=O)n3nc(C4=CCOCC4)nc23)cc1C(F)(F)F [Example 72, 2-(6-(4-acetylpiperazin-1-yl)-2-(3,6-dihydro-2H-pyran-4-yl)-5-methyl-7-oxo-[1,2,4]triazolo[1,5-a]pyrimidin-4(7H)-yl)-N-(4-ethyl-3-(trifluoromethyl)phenyl)acetamide]
13 | 100 | > 10000 |  | 2000 | CC(=O)N1CCN(c2c(C)n(CC(=O)Nc3ccc(S(F)(F)(F)(F)F)cc3Cl)c3nc(C4=CCOCC4)nn3c2=O)CC1 [Example 73, 2-(6-(4-acetylpiperazin-1-yl)-2-(3,6-dihydro-2H-pyran-4-yl)-5-methyl-7-oxo-[1,2,4]triazolo[1,5-a]pyrimidin-4(7H)-yl)-N-(2-chloro-4-(pentafluoro-l6-sulfaneyl)phenyl)acetamide]
14 | 200 | > 10000 |  | 4000 | COC(=O)N1CC=C(c2nc3n(CC(=O)Nc4ccc(Cl)c(C(F)(F)F)c4)c(C)c(N4CCN(C(C)=O)CC4)c(=O)n3n2)CC1 [Example 77, methyl 4-(6-(4-acetylpiperazin-1-yl)-4-(2-((4-chloro-3-(trifluoromethyl)phenyl)amino)-2-oxoethyl)-5-methyl-7-oxo-4,7-dihydro-[1,2,4]triazolo[1,5-a]pyrimidin-2-yl)-5,6-dihydropyridine-1(2H)-carboxylate]
15 | 200 | > 10000 |  | 3000 | CC(=O)N1CCN(c2c(C)n(CC(=O)Nc3ccc(S(F)(F)(F)(F)F)cc3)c3nc(C4=CCOCC4)nn3c2=O)CC1 [Example 78, 2-(6-(4-acetylpiperazin-1-yl)-2-(3,6-dihydro-2H-pyran-4-yl)-5-methyl-7-oxo-[1,2,4]triazolo[1,5-a]pyrimidin-4(7H)-yl)-N-(4-(pentafluoro-l6-sulfaneyl)phenyl)acetamide]
16 | 200 | > 10000 |  | 5000 | CC(=O)N1CCN(c2c(C)n(CC(=O)Nc3ccc(Cl)cc3)c3nc(C4=CCCCO4)nn3c2=O)CC1 [Example 79, 2-(6-(4-acetylpiperazin-1-yl)-2-(3,4-dihydro-2H-pyran-6-yl)-5-methyl-7-oxo-[1,2,4]triazolo[1,5-a]pyrimidin-4(7H)-yl)-N-(4-chlorophenyl)acetamide]
17 | 300 | > 10000 |  | 800 | CC(=O)N1CCN(c2c(C)n(CC(=O)Nc3cc(C(F)(F)F)c(Cl)cc3C)c3nc(C4=CCOCC4)nn3c2=O)CC1 [Example 80, 2-(6-(4-acetylpiperazin-1-yl)-2-(3,6-dihydro-2H-pyran-4-yl)-5-methyl-7-oxo-[1,2,4]triazolo[1,5-a]pyrimidin-4(7H)-yl)-N-(4-chloro-2-methyl-5-(trifluoromethyl)phenyl)acetamide]
18 | 300 | > 10000 |  | 4000 | COC(=O)N1CCN(c2nc3n(CC(=O)Nc4ccc(S(F)(F)(F)(F)F)cc4)c(C)c(N4CCN(C(C)=O)CC4)c(=O)n3n2)CC1 [Example 81, methyl 4-(6-(4-acetylpiperazin-1-yl)-5-methyl-7-oxo-4-(2-oxo-2-((4-(pentafluoro-l6-sulfaneyl)phenyl)amino)ethyl)-4,7-dihydro-[1,2,4]triazolo[1,5-a]pyrimidin-2-yl)piperazine-1-carboxylate]
